Consider 14 molecules from patent publication US11739098B2 (BRISTOL-MYERS SQUIBB COMPANY, priority 2017, dated 2023).

Structures are written as SMILES. pIC50: −log10 of the molar value. A value given as a limit tells only on which side of the number the result lay.

Holding throughout (type): cell-based
The target of one experiment is T1, human TLR7 (Homo sapiens, UniProt Q9NYK1).
T1 construct: host or cells: HEK-Blue cells (HEK293-derived reporter line)
T1 sequence (Q9NYK1 27-1049): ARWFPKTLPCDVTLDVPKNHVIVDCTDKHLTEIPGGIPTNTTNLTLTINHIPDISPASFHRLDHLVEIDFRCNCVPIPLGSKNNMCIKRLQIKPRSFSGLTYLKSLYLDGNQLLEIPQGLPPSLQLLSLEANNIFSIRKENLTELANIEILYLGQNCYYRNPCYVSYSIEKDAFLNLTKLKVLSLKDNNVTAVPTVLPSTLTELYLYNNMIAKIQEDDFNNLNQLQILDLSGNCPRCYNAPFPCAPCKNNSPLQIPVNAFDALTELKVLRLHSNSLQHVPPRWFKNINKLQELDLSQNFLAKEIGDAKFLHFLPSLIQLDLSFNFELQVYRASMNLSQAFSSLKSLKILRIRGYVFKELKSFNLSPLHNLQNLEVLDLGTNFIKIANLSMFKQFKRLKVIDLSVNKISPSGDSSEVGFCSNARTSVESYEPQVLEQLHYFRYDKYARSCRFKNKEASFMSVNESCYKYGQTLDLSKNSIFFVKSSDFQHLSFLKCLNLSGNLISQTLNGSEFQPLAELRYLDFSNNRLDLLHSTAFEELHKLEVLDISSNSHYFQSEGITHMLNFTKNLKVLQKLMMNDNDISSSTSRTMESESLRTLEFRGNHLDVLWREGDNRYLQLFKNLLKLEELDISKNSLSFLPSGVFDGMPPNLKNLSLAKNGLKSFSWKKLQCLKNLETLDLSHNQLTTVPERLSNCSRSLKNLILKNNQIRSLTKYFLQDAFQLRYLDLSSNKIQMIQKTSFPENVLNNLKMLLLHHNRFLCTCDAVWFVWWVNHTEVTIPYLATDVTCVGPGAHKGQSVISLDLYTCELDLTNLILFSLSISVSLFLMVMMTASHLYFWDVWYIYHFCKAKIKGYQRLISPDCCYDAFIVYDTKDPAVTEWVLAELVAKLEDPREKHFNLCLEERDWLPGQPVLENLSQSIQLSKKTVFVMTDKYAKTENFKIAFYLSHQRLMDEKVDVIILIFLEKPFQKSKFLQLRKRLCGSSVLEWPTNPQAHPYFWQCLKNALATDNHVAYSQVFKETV
The experiment is described as follows: TLR7 inhibition reporter assay (HEK-Blue cells, SEAP reporter, gardiquimod stimulation). The note with it: HEK-Blue cells overexpressing human TLR7, SEAP reporter, gardiquimod 7.5 μM. In a few lines: (§1)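 Agonists (final): TLR7 gardiquimod 7.5 μM; TLR8 R848 15.9 μM; TLR9 ODN2006 5 nM. HEK-Blue reporter cells, 30 min RT compound pre-incubation, 0.05 nM–50 μM dose range, 22 h at 37 °C, colorimetric SEAP detection medium. % inhibition relative to agonist+DMSO and known-inhibitor wells.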

Another experiment has as its target T2, human TLR8 (Homo sapiens, UniProt Q9NR97).
T2 construct: host or cells: HEK-Blue cells (HEK293-derived reporter line)
T2 sequence (Q9NR97 27-1041): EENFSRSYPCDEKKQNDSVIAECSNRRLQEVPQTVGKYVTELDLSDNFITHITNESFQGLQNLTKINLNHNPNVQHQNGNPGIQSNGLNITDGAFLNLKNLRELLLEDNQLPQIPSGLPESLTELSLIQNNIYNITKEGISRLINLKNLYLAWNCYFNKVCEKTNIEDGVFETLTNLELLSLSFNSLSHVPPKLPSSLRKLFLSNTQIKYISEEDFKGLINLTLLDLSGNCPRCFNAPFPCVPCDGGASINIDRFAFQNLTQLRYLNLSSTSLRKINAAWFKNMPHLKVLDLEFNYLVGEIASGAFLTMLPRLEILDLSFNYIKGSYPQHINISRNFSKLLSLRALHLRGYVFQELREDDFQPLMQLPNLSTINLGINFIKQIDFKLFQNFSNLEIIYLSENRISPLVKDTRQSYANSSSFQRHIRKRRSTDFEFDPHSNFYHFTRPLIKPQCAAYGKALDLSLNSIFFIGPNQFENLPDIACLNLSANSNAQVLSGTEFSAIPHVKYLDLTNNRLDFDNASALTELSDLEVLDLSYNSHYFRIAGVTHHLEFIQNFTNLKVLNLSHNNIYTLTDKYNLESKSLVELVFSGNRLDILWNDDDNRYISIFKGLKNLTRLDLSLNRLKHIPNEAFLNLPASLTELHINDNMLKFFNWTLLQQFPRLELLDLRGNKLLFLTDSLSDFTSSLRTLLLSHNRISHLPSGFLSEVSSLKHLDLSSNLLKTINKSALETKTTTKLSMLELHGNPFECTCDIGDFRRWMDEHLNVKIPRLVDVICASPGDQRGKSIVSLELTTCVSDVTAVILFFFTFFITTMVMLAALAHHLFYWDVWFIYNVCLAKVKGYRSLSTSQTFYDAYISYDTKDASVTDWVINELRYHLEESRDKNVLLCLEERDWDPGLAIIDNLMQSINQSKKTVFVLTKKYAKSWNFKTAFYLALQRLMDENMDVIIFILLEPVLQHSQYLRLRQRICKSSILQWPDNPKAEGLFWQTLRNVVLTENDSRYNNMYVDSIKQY
Description: TLR8 inhibition reporter assay (HEK-Blue cells, SEAP reporter, R848 stimulation). The settings on record: HEK-Blue cells overexpressing human TLR8, SEAP reporter, R848 15.9 μM. In a few lines: as §1

The target of a further experiment is T3, human TLR9 (Homo sapiens, UniProt Q9NR96).
T3 construct: host or cells: HEK-Blue cells (HEK293-derived reporter line)
T3 sequence (Q9NR96 26-1032): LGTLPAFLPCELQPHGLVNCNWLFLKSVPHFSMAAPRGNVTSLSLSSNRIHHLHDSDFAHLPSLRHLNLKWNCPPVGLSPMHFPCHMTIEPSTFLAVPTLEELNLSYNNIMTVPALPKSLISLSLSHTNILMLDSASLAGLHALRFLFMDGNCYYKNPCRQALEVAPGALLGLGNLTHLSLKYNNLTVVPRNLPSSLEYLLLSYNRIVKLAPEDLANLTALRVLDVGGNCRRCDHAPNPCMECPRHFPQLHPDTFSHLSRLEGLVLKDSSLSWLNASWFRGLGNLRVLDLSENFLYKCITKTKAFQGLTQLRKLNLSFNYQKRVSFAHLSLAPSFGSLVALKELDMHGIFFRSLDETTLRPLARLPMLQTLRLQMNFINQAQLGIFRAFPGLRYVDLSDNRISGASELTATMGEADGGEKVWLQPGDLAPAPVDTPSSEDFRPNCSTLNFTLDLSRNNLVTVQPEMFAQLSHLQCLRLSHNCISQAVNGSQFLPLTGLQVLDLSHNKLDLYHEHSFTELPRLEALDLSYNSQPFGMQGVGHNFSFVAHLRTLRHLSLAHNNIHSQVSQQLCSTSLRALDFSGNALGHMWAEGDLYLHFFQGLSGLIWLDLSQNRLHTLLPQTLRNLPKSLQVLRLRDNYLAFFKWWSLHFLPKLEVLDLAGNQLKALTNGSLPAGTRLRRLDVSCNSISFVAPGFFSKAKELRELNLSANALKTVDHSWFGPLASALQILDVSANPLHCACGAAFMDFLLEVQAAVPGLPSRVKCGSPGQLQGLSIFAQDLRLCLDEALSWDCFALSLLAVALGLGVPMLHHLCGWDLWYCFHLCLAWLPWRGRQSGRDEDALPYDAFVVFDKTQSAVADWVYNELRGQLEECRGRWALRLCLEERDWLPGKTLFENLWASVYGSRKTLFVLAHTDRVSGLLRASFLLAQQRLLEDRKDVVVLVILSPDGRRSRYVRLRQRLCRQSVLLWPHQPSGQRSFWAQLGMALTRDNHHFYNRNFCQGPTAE
The experiment is described as follows: TLR9 inhibition reporter assay (HEK-Blue cells, SEAP reporter, ODN2006 stimulation). The note with it: HEK-Blue cells overexpressing human TLR9, SEAP reporter, ODN2006 5 nM. An outline of the steps:
as §1

As to `CC(C)c1c(-c2ccnc3[nH]ncc23)[nH]c2cc(C(F)(F)F)c(C3CCNCC3)cc12` [Example 249, 4-(3-isopropyl-5-(piperidin-4-yl)-6-(trifluoromethyl)-1H-indol-2-yl)-1H-pyrazolo[3,4-b]pyridine], the pIC50 was over 7.00 against human TLR7, 6.00 to 7.00 against human TLR8 and 4.30 to 6.00 against human TLR9.

Regarding `Cc1cc2[nH]c(-c3ccnc4[nH]ncc34)c(C(C)C)c2cc1C1CCNCC1` [Example 250, 4-(3-isopropyl-6-methyl-5-(piperidin-4-yl)-1H-indol-2-yl)-1H-pyrazolo[3,4-b]pyridine], the pIC50 was over 7.00 at human TLR7, over 7.00 on human TLR8 and 6.00 to 7.00 on human TLR9.

In the case of `CCc1c(-c2ccnc3[nH]ncc23)[nH]c2c(F)cc(C3CCNCC3)cc12` [Example 251, 4-(3-ethyl-7-fluoro-5-(piperidin-4-yl)-1H-indol-2-yl)-1H-pyrazolo[3,4-b]pyridine], the figures for the pIC50 against human TLR7, on human TLR8 and on human TLR9 were over 7.00, 6.00 to 7.00 and 6.00 to 7.00, respectively.

`CC(C)c1c(-c2ccnc3[nH]ncc23)[nH]c2cc(Cl)c(C3CCNCC3)cc12` [Example 252, 4-(6-chloro-3-isopropyl-5-(piperidin-4-yl)-1H-indol-2-yl)-1H-pyrazolo[3,4-b]pyridine]: the pIC50 on human TLR7 is over 7.00; on human TLR8, over 7.00; at human TLR9 it was 6.00 to 7.00.

Turning to `CC(C)c1c(-c2ccnc3[nH]ncc23)[nH]c2cc(F)c(C3CCNCC3)cc12` [Example 253, 4-(6-fluoro-3-isopropyl-5-(piperidin-4-yl)-1H-indol-2-yl)-1H-pyrazolo[3,4-b]pyridine], the figures for the pIC50 against human TLR7, against human TLR8 and against human TLR9 were over 7.00, over 7.00 and 6.00 to 7.00, respectively.

Turning to `CCc1c(-c2ccnc3[nH]ncc23)[nH]c2ccc(C3CCNCC3)c(C)c12` [Example 254, 4-(3-ethyl-4-methyl-5-(piperidin-4-yl)-1H-indol-2-yl)-1H-pyrazolo[3,4-b]pyridine], the pIC50 on human TLR7 was 4.30 to 6.00; at human TLR8 it was 4.30 to 6.00; against human TLR9, under 4.30.

With `COc1cc2[nH]c(-c3ccnc4[nH]ncc34)c(C(C)C)c2cc1C1CCNCC1` [Example 255, 4-(3-isopropyl-6-methoxy-5-(piperidin-4-yl)-1H-indol-2-yl)-1H-pyrazolo[3,4-b]pyridine], the pIC50 at human TLR7 is over 7.00; against human TLR8 it was 6.00 to 7.00; against human TLR9, 4.30 to 6.00.

Regarding `Cc1c(C2CCNCC2)ccc2[nH]c(-c3ccnc4[nH]ncc34)c(C)c12` [Example 256, 4-(3,4-dimethyl-5-(piperidin-4-yl)-1H-indol-2-yl)-1H-pyrazolo[3,4-b]pyridine], the values for the pIC50 against human TLR7, on human TLR8 and at human TLR9 were over 7.00, over 7.00 and 4.30 to 6.00, respectively.

For `CCc1c(-c2ccc3nccn3c2)[nH]c2cc(F)c(C3CCNCC3)c(F)c12` [Example 257, 6-(3-ethyl-4,6-difluoro-5-(piperidin-4-yl)-1H-indol-2-yl)imidazo[1,2-a]pyridine], the negative logarithm of the IC50 (pIC50) against human TLR7, against human TLR8 and on human TLR9 was over 7.00 throughout.

With `CC(C)c1c(-c2ccc3nccn3c2)[nH]c2ccc(C3CCNCC3)c(F)c12` [Example 258, 6-(4-fluoro-3-isopropyl-5-(piperidin-4-yl)-1H-indol-2-yl)imidazo[1,2-a]pyridine], the negative logarithm of the IC50 (pIC50) at human TLR7 was over 7.00; on human TLR8, over 7.00; against human TLR9 it was 6.00 to 7.00.

For `CC(C)c1c(-c2ccnc3[nH]ncc23)[nH]c2ccc(C3CCNCC3)c(F)c12` [Example 259, 4-(4-fluoro-3-isopropyl-5-(piperidin-4-yl)-1H-indol-2-yl)-1H-pyrazolo[3,4-b]pyridine], the pIC50 is over 7.00 against human TLR7, over 7.00 at human TLR8 and 6.00 to 7.00 at human TLR9.

Turning to `CC(C)c1c(-c2cc(C(C)C)c3nccn3c2)[nH]c2ccc(C3CCNCC3)cc12` [Example 260, 8-Isopropyl-6-(3-isopropyl-5-(piperidin-4-yl)-1H-indol-2-yl)imidazo[1,2-a]pyridine], the pIC50 was over 7.00 on human TLR7, 6.00 to 7.00 at human TLR8 and 4.30 to 6.00 at human TLR9.

Take `Cc1cc(-c2[nH]c3ccc(C4CCNCC4)cc3c2C(C)C)cn2c(C(N)=O)cnc12` [Example 261, 6-(3-isopropyl-5-(piperidin-4-yl)-1H-indol-2-yl)-8-methylimidazo[1,2-a]pyridine-3-carboxamide]: the values for the pIC50 at human TLR7, against human TLR8 and on human TLR9 were over 7.00, 6.00 to 7.00 and 4.30 to 6.00, respectively.

As for `Cc1cc(-c2[nH]c3ccc(C4CCNCC4)cc3c2C(C)C)cn2cc(C(=O)NC3CC3)nc12` [Example 262, N-cyclopropyl-6-(3-isopropyl-5-(piperidin-4-yl)-1H-indol-2-yl)-8-methylimidazo[1,2-a]pyridine-2-carboxamide], the pIC50 against human TLR7 is over 7.00; at human TLR8, over 7.00; against human TLR9, 6.00 to 7.00.
